Test results from US12533427B2, “Radioactive antitumor agent” (National Institutes for Quantum Science and Technology, priority 2017, dated 2026).

Assays:
[1] = system: U87MG cells from human glioblastoma; assay: Tumor growth in U87MG tumor-bearing mouse; assay type: in vivo, BALB/c nude mouse; conditions: for rate of tumor volume ratio to tumor volume ratio of the control group on day 39: single i.v. administration
Method: (§1) U87MG cells from human glioblastoma were purchased from ATCC, and utilized after growing. A U87MG tumor-bearing model was made by implanting 1×10^7 U87MG cells subcutaneously into the flanks of BALB/c nude mouse (male, 6 weeks old, weighing approximately 20 to 25 g, obtained from Japan SLC). The tumor-bearing mice were subjected to tests when the tumor diameter reached around 5 mm after transplantation of U87MG cells.
(§2) The tumor-bearing mice were randomized into […] (n=7/group), and were intravenously administered with different single doses of ^64Cu-ATSM with 18.5, 37, 74, 111 and 148 MBq, and physiological saline as a control, respectively. To the remaining one group, ^64Cu-ATSM was administered intravenously at a dose of 37 MBq on days 0, 7, 21 and 28 of four times in total (37 MBq×4).
(§3) In each of the following evaluations, data were presented as mean value±standard deviation. Two-way analysis of variance was used in the significant difference test of the data, excluding the survival curve. A Log-rank test was used for the data of the survival curve. Significant levels used were all 5%.
(§4) After the start of the study, mice were weighed twice a week over time, and the size of the tumor was measured with a caliper. The tumor volume was calculated with the formula: tumor volume=length×width^2×π/6, and the tumor volume on each day was expressed as a percentage relative to the initial tumor volume on day 0.

[2] = system: U87MG cells from human glioblastoma; assay: Survival curve for 80 days of U87MG tumor-bearing mice; assay type: in vivo, BALB/c nude mouse
Method: as §1, §2, §3
After the start of the study, the mice were slaughtered at the time when the tumor volume reached the humanitarian endpoint. Survivability for 80 days was observed, and the survival rate was calculated.

[3] = Body weight change of U87MG tumor-bearing mice; assay type: in vivo, BALB/c nude mouse
Method: as §2, §3, §4

[4] = Measurement of hematological parameters in non-tumor-bearing mice; assay type: in vivo, mouse
Method: as §3
To evaluate side effects, hematological parameters were measured using non-tumor-bearing mice (n=5/group) treated in a manner similar to the tumor-bearing mice described above.
The measurement of hematological parameters was performed by measuring concentrations of white blood cells, red blood cells and platelets using blood collected from the vein at the start point (day 0) immediately before administration of ^64Cu-ATSM and on days 2, 7, 14, 21, 28, 35, 42 and 49 after administration of ^64Cu-ATSM, with a blood analyzer (Celltac MEK-6458, manufactured by NIHON KOHDEN CORPORATION).

[5] = Measurement of biochemical parameters (liver and renal function) in non-tumor-bearing mice; assay type: in vivo, mouse; conditions: any administration group; plasma, day 49
Method: as §3
To evaluate side effects, biochemical parameters were measured using non-tumor-bearing mice (n=5/group) treated in a manner similar to the tumor-bearing mice described above.
The measurements of biochemical parameters were performed by measuring amounts of glutamate pyruvate transaminase and alkaline phosphatase for liver function and amounts of urea nitrogen and creatinine for renal function using mouse plasma prepared from blood collected from heart on day 49 after the first administration of ^64Cu-ATSM, with a blood biochemical analyzer (FUJI DRI-CHEM 7000VZ, manufactured by FUJIFILM Corporation).

[6] = Internal exposure dose estimate for human
Method: Meanwhile, the internal exposure dose with ^64Cu-ATSM was maximum in the liver, and was 0.108 mSv/MBq. This means that when 150 MBq/kg of ^64Cu-ATSM is administered to a human weighing 60 kg, the exposure dose is 16.2 mGy/kg for the liver and 972 mSv for the whole body. When this exposure dose is applied to normal radiotherapy, it corresponds to an exposure equal to single irradiation of 1.215 Gy, which is lower than the single irradiation dose (1.8 to 2.0 Gy) of normal split irradiation in radiotherapy. Also, when 450 MBq/kg is administered to a human weighing 60 kg, the exposure dose is 48.6 mGy/kg for the liver and 2,916 mSv for the whole body. Since the tolerance dose of the liver in normal split irradiation is 30 Gy as a dose that causes side effects in 5% in 5 years, the total dose when administered a total of four times during normal radiotherapy of about 3 Gy will be 11.66 Gy, which is lower than the tolerance dose of the liver described above.
The present inventors have also reported estimates of irradiation doses of ^64Cu-ATSM for human based on in vivo distribution in normal mouse tissue (see, Yoshii Y, Furukawa T, Matsumoto H, Yoshimoto M, Kiyono Y, Zhang M R, Fujibayashi Y, and Saga T (2016) Cu-ATSM therapy targets regions with activated DNA repair and enrichment of CD133 cells in an HT-29 tumor model: Sensitization with a nucleic acid antimetabolite. Cancer Lett 376: 74-82 and Yoshii Y, Matsumoto H, Yoshimoto M, Furukawa T, Morokoshi Y, Sogawa C, Zhang M R, Wakizaka H, Yoshii H, Fujibayashi Y, and Saga T (2014) Controlled administration of penicillamine reduces radiation exposure in critical organs during ^64Cu-ATSM internal radiotherapy: a novel strategy for liver protection. PloS one 9: e86996). […] Thus, doses in the multiple administration of ^64Cu-ATSM to human according to the present invention can be determined as appropriate based on data of therapeutic effect and toxicity in mouse in the present invention. PET imaging of ^64Cu-ATSM may also be performed to monitor the irradiation dose of tumors and tissues during ^64Cu-ATSM therapy for human according to the present invention, thereby enabling theranostics of cancer.

[7] = system: CD133-positive cells; conditions: Non-Patent Literature 2; cited from earlier work
[8] = system: CD133-positive cells in tumors; conditions: Non-Patent Literatures 3 and 4; cited from earlier work
[9] = system: glioblastoma showing high HIF-1α expression; conditions: clinical PET investigations; cited from earlier work
[10] = therapeutic dose calculated from 37 MBq per mouse; cited from earlier work
[11] = 37 MBq four-time administration (37 MBq×4)
[12] = 111 and 148 MBq single administration
[13] = 150 MBq/kg to a human weighing 60 kg
[14] = 450 MBq/kg to a human weighing 60 kg

For “radioactive diacetyl-bis(N4-methylthiosemicarbazone) copper complex [^64Cu-ATSM]”, the “tumor growth compared to the control group” value ([1]; 37 MBq four times (37 MBq×4)) was “significantly greater inhibition effect of tumor growth”, the “mice with tumors nearly invisible on day 39” value ([1]; 37 MBq four-time administration (37 MBq×4), day 39) was 6 cases among 7 mice and the “rate of tumor volume ratio to that of the control group on day 39” value ([1]; 37 MBq four-time administration (37 MBq×4; days 0, 7, 21, 28), i.v., day 39) was 0.04. The “rate of tumor volume ratio to tumor volume ratio of the control group on day 39” value ([1]; fifth of five printed values, 148 MBq, day 39) was 0.14, the “rate of tumor volume ratio to tumor volume ratio of the control group on day 39” value ([1]; first of five printed values, presumably 18.5 MBq, day 39) was 0.82 and the “rate of tumor volume ratio to tumor volume ratio of the control group on day 39” value ([1]; fourth of five printed values, presumably 111 MBq, day 39) was 0.14. For the same substance, the “rate of tumor volume ratio to tumor volume ratio of the control group on day 39” value ([1]; second of five printed values, presumably 37 MBq, day 39) was 0.31, the “dose dependence of antitumor effect” value ([1]; single administration 18.5-148 MBq) was “dose-dependent antitumor effect, showing a plateau at 111 MBq” and the “tumor growth compared to the control group” value ([1]; single administration at 37, 74, 111 and 148 MBq, 39 days) was “significantly inhibited tumor growth”. For the same substance, the “tumor growth compared to the control group” value ([1]; single administration of 18.5 MBq) was “inhibited tumor growth compared to the control group, but showed no significant difference”, the “rate of tumor volume ratio to tumor volume ratio of the control group on day 39” value ([1]; third of five printed values, presumably 74 MBq, day 39) was 0.28 and the “survival rate compared to the control group” value ([2]; 37, 74, 111 and 148 MBq single administration groups and 37 MBq×4 group, 80 days) was “higher than that of the control group”. For the same substance, the “survival time compared to the 111 MBq single administration group” value [2, 11] was “longer survival time than the 111 MBq single administration group, but no significant difference”, the “life-extending effect compared to the control group, single administration groups” value ([2]; 111 MBq single administration) was “significant life-extending effect” and the “survival effect among the single administration groups” value ([2]; 111 MBq single administration) was “highest survival effect”. The “survival time compared to the 18.5, 37, 74 and 148 MBq single administration groups” value ([2]; 111 MBq single administration group and 37 MBq×4 group) was “significantly longer survival time”, the body weight loss [3, 11] was “No body weight loss was observed” and the “recovery of body weight” value [3, 12] was “returned to normal body weight by day 14”. The “body weight compared to the control group” value ([3]; 111 and 148 MBq single administration, day 7) was “significantly reduced”, the hematological toxicity ([4]; 37 MBq four-time administration (37 MBq×4), throughout the study period) was “no symptoms of hematological toxicity were observed” and the “recovery of number of white blood cells” value ([4]; 74, 111 and 148 MBq single administration) was “recovered to normal on day 21”. The “number of white blood cells (WBC)” value ([4]; 74 and 111 MBq single administration, day 2) was “significant reductions”, the “number of platelets (PLT)” value ([4]; 111 MBq single administration, day 7) was “significant reduction” and the “recovery of number of platelets” value [4, 12] was “recovered to normal on day 14”. The “number of white blood cells (WBC)” value ([4]; 111 and 148 MBq single administration, days 7 and 14) was “significant reductions”, the “recovery of number of red blood cells” value ([4]; 148 MBq single administration) was “recovered to normal on day 14” and the “number of red blood cells (RBC)” value ([4]; 148 MBq single administration, day 7) was “significant reduction”. For the same substance, the “number of platelets (PLT)” value ([4]; 148 MBq single administration, days 2 and 7) was “significant reductions”, the “alkaline phosphatase (ALP) compared to control” value [5] was “no significant differences” and the “blood urea nitrogen (BUN) compared to control” value [5] was “no significant differences”. The “creatinine (CRE) compared to control” value [5] was “no significant differences”, the “glutamate pyruvate transaminase (GPT) compared to control” value [5] was “no significant differences” and the “exposure dose for the liver” value [6, 13] was 16.2 mGy/kg. The “exposure dose for the whole body” value [6, 13] was 972 mSv, the “exposure equal to single irradiation of normal radiotherapy” value [6, 13] was 1.215 Gy and the “exposure dose for the liver” value [6, 14] was 48.6 mGy/kg. The “exposure dose for the whole body” value [6, 14] was 2,916 mSv, the “total dose when administered a total of four times” value ([6]; 450 MBq/kg to a human weighing 60 kg, four times) was 11.66 Gy and the “internal exposure dose, liver (maximum organ)” value ([6]; liver) was 0.108 mSv/MBq. The accumulation in cells [7] was “accumulates in CD133-positive cells”, the “effect on CD133-positive cells in tumors” value [8] was “reduce CD133-positive cells in tumors” and the “accumulation in tumor (PET)” value [9] was “accumulates in highly malignant grade glioblastoma showing high HIF-1α expression”. For the same substance, the “estimated irradiation doses to liver, red bone marrow and ovary in human” value [10] was “lower than the acceptable dose”.
